Results reported in patent US3939266A, “Substituted sulfonylacetamido cephalosporins” (SmithKline Corporation, priority 1974, dated 1976).
In brackets after ≈: the same amount, converted by molar mass. Where two headings read alike, the source gives them in different places.

How the values were obtained:
Format in all cases: cell-based
S. aureus SK 23390 = experiment: MIC against S. aureus SK 23390; conditions: Staphylococcus aureus, SK23390
Kleb. pneumo. SK 4200 = experiment: MIC against Kleb. pneumo. SK 4200
Strep. faecalis HH 34358 = experiment: MIC against Strep. faecalis HH 34358; conditions: Enterococcus faecalis, HH34358
[1] = tested on: Entero. aerog. ATCH 13048; experiment: MIC against Entero. aerog. ATCH 13048
S. aureus HH 127 = experiment: MIC against S. aureus HH 127; conditions: Staphylococcus aureus, HH127
E. coli SK 12140 = experiment: MIC against E. coli SK 12140; conditions: Escherichia coli, SK12140
Pseudo. sp. HH 63 = experiment: MIC against Pseudo. sp. HH 63
Entero. cloaca PaSL 969 = experiment: MIC against Entero. cloaca PaSL 969
Salmonella ATCC 12176 = experiment: MIC against Salmonella ATCC 12176; conditions: ATCC12176; Salmonella ATCC 12176; read-out: MIC
Shigella HH 112 = experiment: MIC against Shigella HH 112; conditions: HH112; Shigella HH 112; read-out: MIC
S. villaluz = experiment: MIC against S. villaluz
Kleb. pneumo. SK 1200 = experiment: MIC against Kleb. pneumo. SK 1200
Serra. marc. ATCC 13880 = experiment: MIC against Serra. marc. ATCC 13880
Strep. pyog. C 203 = experiment: MIC against Strep. pyog. C 203
E. coli HH 33779 = experiment: MIC against E. coli HH 33779; conditions: Escherichia coli, HH33779
[2] = E. coli SK 12140, read-out: MIC

SMILES | MIC (S. aureus SK 23390) | MIC (Kleb. pneumo. SK 4200) | MIC (Strep. faecalis HH 34358) | MIC [1] | MIC (S. aureus HH 127) | MIC (E. coli SK 12140; [2]) | MIC (Pseudo. sp. HH 63) | MIC (Entero. cloaca PaSL 969) | MIC (Salmonella ATCC 12176) | MIC (Shigella HH 112) | MIC (S. villaluz) | MIC (Kleb. pneumo. SK 1200) | MIC (Serra. marc. ATCC 13880) | MIC (Strep. pyog. C 203) | MIC (E. coli HH 33779) | MIC (E. coli SK 12140)
Cc1nc(SCC2=C(C(=O)O)N3C(=O)C(NC(=O)CS(C)(=O)=O)C3SC2)n[nH]1 (stereo not shown) [Compound 59586] | 0.8 µg/mL (≈ 1.79 µM) | 3.1 µg/mL (≈ 6.93 µM) | 100 µg/mL (≈ 223 µM) | 200 µg/mL (≈ 447 µM) | 1.6 µg/mL (≈ 3.58 µM) | 6.3 µg/mL (≈ 14.1 µM) | > 200 µg/mL | > 200 µg/mL | 1.6 µg/mL (≈ 3.58 µM) | 12.5 µg/mL (≈ 27.9 µM) | 100 µg/mL (≈ 223 µM) | 3.1 µg/mL (≈ 6.93 µM) | > 200 µg/mL | 0.2 µg/mL (≈ 0.447 µM) | 25 µg/mL (≈ 55.9 µM) | 
Cn1nnnc1SCC1=C(C(=O)O)N2C(=O)C(NC(=O)CS(C)(=O)=O)[C@H]2SC1 (stereo partly shown) [Compound 57286, 7-Methylsulfonylacetamido-3-(1-methyltetrazol-5-ylthiomethyl)-3-cephem-4-carboxylic acid] | 1.6 µg/mL (≈ 3.57 µM) | 1.6 µg/mL (≈ 3.57 µM) | 100 µg/mL (≈ 223 µM) | > 200 µg/mL | 3.1 µg/mL (≈ 6.91 µM) | 3.1 µg/mL (≈ 6.91 µM) | > 200 µg/mL | > 200 µg/mL | 3.1 µg/mL (≈ 6.91 µM) | 3.1 µg/mL (≈ 6.91 µM) |  | 3.1 µg/mL (≈ 6.91 µM) | > 200 µg/mL | 0.2 µg/mL (≈ 0.446 µM) | 12.5 µg/mL (≈ 27.9 µM) | 
Cc1nnc(SCC2=C(C(=O)O)N3C(=O)C(NC(=O)CS(C)(=O)=O)[C@H]3SC2)s1 (stereo partly shown) [Compound 55848, 7-Methylsulfonylacetamido-3-(2-methyl-1,3,4-thiadiazol-5-ylthiomethyl)-3-cephem-4-carboxylic acid] | 1.6 µg/mL (≈ 3.44 µM) | 3.1 µg/mL (≈ 6.67 µM) | 50 µg/mL (≈ 108 µM) | > 200 µg/mL | 1.6 µg/mL (≈ 3.44 µM) |  | > 200 µg/mL | > 200 µg/mL | 3.1 µg/mL (≈ 6.67 µM) | 12.5 µg/mL (≈ 26.9 µM) |  | 6.3 µg/mL (≈ 13.6 µM) |  | 0.2 µg/mL (≈ 0.431 µM) | 25 µg/mL (≈ 53.8 µM) | 12.5 µg/mL (≈ 26.9 µM)
CC(=O)OCC1=C(C(=O)O)N2C(=O)C(NC(=O)CS(=O)(=O)c3ccccc3)C2SC1 (stereo not shown) [Compound 57359, 7-Phenylsulfonylacetamidocephalosporanic acid] | 0.8 µg/mL (≈ 1.76 µM) | 12.5 µg/mL (≈ 27.5 µM) | 50 µg/mL (≈ 110 µM) | > 200 µg/mL | 1.6 µg/mL (≈ 3.52 µM) | 50 µg/mL (≈ 110 µM) | > 200 µg/mL | > 200 µg/mL | 12.5 µg/mL (≈ 27.5 µM) | 25 µg/mL (≈ 55 µM) |  | 6.3 µg/mL (≈ 13.9 µM) | > 200 µg/mL | 0.2 µg/mL (≈ 0.44 µM) | 100 µg/mL (≈ 220 µM) | 
CCS(=O)(=O)CC(=O)NC1C(=O)N2C(C(=O)O)=C(CSc3nnc(C)s3)CSC12 (stereo not shown) [Compound 59641, 7-Ethyldulfonylacetamido-3-(2-methyl-1,3,5-thiadiazol-5-yl-thiomethyl)-3-cephem-4-carboxylic acid] | 0.4 µg/mL (≈ 0.836 µM) | 1.6 µg/mL (≈ 3.34 µM) | 25 µg/mL (≈ 52.2 µM) | 100 µg/mL (≈ 209 µM) | 0.4 µg/mL (≈ 0.836 µM) | 3.1 µg/mL (≈ 6.48 µM) | > 200 µg/mL |  | 1.6 µg/mL (≈ 3.34 µM) | 6.3 µg/mL (≈ 13.2 µM) |  | 1.6 µg/mL (≈ 3.34 µM) | > 200 µg/mL | 0.1 µg/mL (≈ 0.209 µM) | 12.5 µg/mL (≈ 26.1 µM) | 
CC(=O)OCC1=C(C(=O)O)N2C(=O)C(NC(=O)CS(C)(=O)=O)C2SC1 (stereo not shown) [Compound 54293, 7-Methylsulfonylacetamidocephalosporanic acid] | 1.6 µg/mL (≈ 4.08 µM) | 12.5 µg/mL (≈ 31.9 µM) | 200 µg/mL (≈ 510 µM) | > 200 µg/mL | 3.1 µg/mL (≈ 7.9 µM) | 12.5 µg/mL (≈ 31.9 µM) | > 200 µg/mL | > 200 µg/mL | 12.5 µg/mL (≈ 31.9 µM) | 25 µg/mL (≈ 63.7 µM) |  | 12.5 µg/mL (≈ 31.9 µM) |  | 0.4 µg/mL (≈ 1.02 µM) | 25 µg/mL (≈ 63.7 µM) | 
CS(=O)(=O)CC(=O)NC1C(=O)N2C(C(=O)[O-])=C(C[n+]3ccccc3)CSC12 (stereo not shown) [Compound 59345, 7-Methylsulfonylacetamido-3-(1-pyridiniummethyl)-3-cephem-4-carboxylic acid] | 0.8 µg/mL (≈ 1.94 µM) | 50 µg/mL (≈ 122 µM) | 100 µg/mL (≈ 243 µM) | > 200 µg/mL | 0.8 µg/mL (≈ 1.94 µM) | 100 µg/mL (≈ 243 µM) | > 200 µg/mL | > 200 µg/mL | 50 µg/mL (≈ 122 µM) | 50 µg/mL (≈ 122 µM) | 25 µg/mL (≈ 60.8 µM) | 100 µg/mL (≈ 243 µM) | > 200 µg/mL | 0.1 µg/mL (≈ 0.243 µM) | 100 µg/mL (≈ 243 µM) | 
